Measurements: article PMC9170034 (Proceedings of the National Academy of Sciences of the …, 2022)
Values joined by “and” are separate entries in the source; they are usually repeats but may differ in a detail not shown here. Identical values can stand only once.

Assays:
[1] = target: T1, AmpC from Escherichia coli (AmpCEC) (Escherichia coli, UniProt P00811); experiment: IC50/pIC50 determination with fluorescent reporter substrate FC-5 after pre-incubation; format: biochemical
T1 construct: made in house
Protocol: (§1) Kinetic analyses were performed (at least in triplicate) using either BMG LABTECH PHERAstar or CLARIOstar plate readers. Unless stated otherwise, reactions were in 50 mM phosphate buffer, pH 7.5, containing 0.01% (vol/vol) aqueous Triton X-100, and, in the case of OXA-10, 10 mM sodium bicarbonate. Assays were performed in competition with either the fluorescent reporter substrate FC-5 ([35]), using black-walled microplates (Greiner Bio-One μCLEAR, PS, F-bottom, black), and measuring fluorescence intensity (ʎex = 380 nm and ʎem = 460 nm), or with nitrocefin (NCF), using ultraviolet transparent plates (Greiner Bio-One UV-Star, COC, F-bottom, clear) and measuring absorbance (ʎAbs = 486 nm, using path-length correction). Nonlinear regression analysis was performed with Prism 5 (GraphPad Software).
IC50s were determined as reported ([35]). TEM-116 (1 nM), AmpCEC (500 pM), or OXA-10 (250 pM) were incubated with varied inhibitor concentrations at room temperature (r.t.) for the indicated time then assayed using 5 µM FC-5. The apparent inhibitory constant Kiapp and the second-order rate constant kinact/K (or k2/K) were determined using reported methods ([60]). SBLs were reacted with the reporter substrate in the presence of varied inhibitor concentrations. Reactions were initiated by SBL addition and immediately monitored for 60 to 120 s (until they plateaued). For TEM-116 (1 nM) assays were carried out in competition with NCF (50 µM); for AmpCEC (100 nM) and OXA-10 (50 nM) FC-5 (5 µM) was used. […] P=Vst+(V0−VS)(1−e^−kobst)/kobs+P0.

[2] = target: T2, OXA-10 (Pseudomonas aeruginosa, UniProt P14489); experiment: as above; format: biochemical
T2 construct: His tag (N); made in house
Protocol: Kinetic analyses were performed (at least in triplicate) using either BMG LABTECH PHERAstar or CLARIOstar plate readers. Unless stated otherwise, reactions were in 50 mM phosphate buffer, pH 7.5, containing 0.01% (vol/vol) aqueous Triton X-100, and, in the case of OXA-10, 10 mM sodium bicarbonate. […] Nonlinear regression analysis was performed with Prism 5 (GraphPad Software).
IC50s were determined as reported ([35]). […] The apparent inhibitory constant Kiapp and the second-order rate constant kinact/K (or k2/K) were determined using reported methods ([60]). SBLs were reacted with the reporter substrate in the presence of varied inhibitor concentrations. Reactions were initiated by SBL addition and immediately monitored for 60 to 120 s (until they plateaued). […] P=Vst+(V0−VS)(1−e^−kobst)/kobs+P0.

[3] = target: T3, AmpCEC (Escherichia coli, UniProt P00811); experiment: biochemical
T3 construct: made in house
Protocol: as §1
(§2) IC50s were determined as reported ([35]). TEM-116 (1 nM), AmpCEC (500 pM), or OXA-10 (250 pM) were incubated with varied inhibitor concentrations at room temperature (r.t.) for the indicated time then assayed using 5 µM FC-5. The apparent inhibitory constant Kiapp and the second-order rate constant kinact/K (or k2/K) were determined using reported methods ([60]). SBLs were reacted with the reporter substrate in the presence of varied inhibitor concentrations. Reactions were initiated by SBL addition and immediately monitored for 60 to 120 s (until they plateaued). […]

[4] = target: T2, OXA-10; experiment: Kiapp and kinact/K determination in competition with FC-5; format: biochemical
Protocol: as §1, §2

[5] = target: T2, OXA-10; experiment: SPE-MS study of prolonged reaction of SBL with penam sulfones; settings: 500 equiv.

T1 sequence (P00811 20-377): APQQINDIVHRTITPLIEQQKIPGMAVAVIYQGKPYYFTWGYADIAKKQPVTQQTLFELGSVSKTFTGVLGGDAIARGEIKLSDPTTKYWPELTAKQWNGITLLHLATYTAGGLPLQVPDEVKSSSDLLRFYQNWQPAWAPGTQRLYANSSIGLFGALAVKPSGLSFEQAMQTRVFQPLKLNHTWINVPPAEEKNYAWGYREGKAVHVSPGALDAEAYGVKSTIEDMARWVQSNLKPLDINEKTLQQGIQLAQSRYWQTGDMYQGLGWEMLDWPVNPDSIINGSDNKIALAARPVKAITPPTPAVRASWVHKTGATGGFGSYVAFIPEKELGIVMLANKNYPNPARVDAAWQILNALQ
T2 sequence (P14489 20-266): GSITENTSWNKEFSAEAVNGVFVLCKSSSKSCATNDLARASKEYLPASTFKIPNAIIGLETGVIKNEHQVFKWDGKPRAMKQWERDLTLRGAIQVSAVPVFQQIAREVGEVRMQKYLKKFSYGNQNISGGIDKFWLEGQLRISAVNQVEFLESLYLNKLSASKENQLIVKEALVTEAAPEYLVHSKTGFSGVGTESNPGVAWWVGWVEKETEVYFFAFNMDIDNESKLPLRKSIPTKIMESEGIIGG
T3 sequence (P00811 20-377): as the sequence (P00811 20-377) above

With CC1(C)[C@H](C(=O)O)N2C(=O)C[C@H]2S1(=O)=O [sulbactam] the IC50 ([1]; IC50, AmpC E. coli, 10 min pre-incubation, r.t., pH 7.5, FC-5 (5 μM)) was 89 µM and 89.2 µM, the IC50 ([1]; pIC50, AmpCEC, pH 7.0, pH 7.0, 0 min pre-incubation, Table S2) was 447 µM and the IC50 ([1]; pIC50, AmpCEC, pH 7.0, pH 7.0, 10 min pre-incubation, Table S2) was 162 µM. The IC50 ([1]; pIC50, AmpCEC, pH 7.0, pH 7.0, 30 min pre-incubation, Table S2) was 69.2 µM, the IC50 ([1]; pIC50, AmpCEC, pH 7.0, pH 7.0, 60 min pre-incubation, Table S2) was 45.7 µM and the IC50 ([1]; pIC50, AmpCEC, pH 7.0, pH 7.0, 360 min pre-incubation, Table S2) was 11.5 µM. For the same molecule, the IC50 ([1]; pIC50, AmpCEC, pH 7.5, pH 7.5, 0 min pre-incubation, Table S2) was 275 µM, the IC50 ([1]; pIC50, AmpCEC, pH 7.5, pH 7.5, 30 min pre-incubation, Table S2) was 36.3 µM and the IC50 ([1]; pIC50, AmpCEC, pH 7.5, pH 7.5, 60 min pre-incubation, Table S2) was 20 µM. It also gave an IC50 ([1]; pIC50, AmpCEC, pH 7.5, pH 7.5, 360 min pre-incubation, Table S2) of 4.17 µM, an IC50 ([1]; pIC50, AmpCEC, pH 8.0, pH 8.0, 0 min pre-incubation, Table S2) of 97.7 µM and an IC50 ([1]; pIC50, AmpCEC, pH 8.0, pH 8.0, 10 min pre-incubation, Table S2) of 37.2 µM. The IC50 ([1]; pIC50, AmpCEC, pH 8.0, pH 8.0, 60 min pre-incubation, Table S2) was 9.77 µM, the IC50 ([1]; pIC50, AmpCEC, pH 8.0, pH 8.0, 360 min pre-incubation, Table S2) was 1.7 µM and the IC50 ([1]; pIC50 at pH 7.5, AmpCEC, 0 min pre-incubation, Table S1) was 275 µM. It also gave an IC50 ([1]; pIC50 at pH 7.5, AmpCEC, 30 min pre-incubation, Table S1) of 36.3 µM, an IC50 ([1]; pIC50 at pH 7.5, AmpCEC, 60 min pre-incubation, Table S1) of 20 µM and an IC50 ([1]; pIC50 at pH 7.5, AmpCEC, 360 min pre-incubation, Table S1) of 4.17 µM. For the same molecule, the IC50 ([2]; IC50, OXA-10, 10 min pre-incubation, r.t., pH 7.5, FC-5 (5 μM), 100 mM NaHCO3 added) was 143 µM and 142 µM, the IC50 ([2]; pIC50 at pH 7.5, OXA-10, with 100 mM added NaHCO3, 0 min pre-incubation, Table S1) was 218.8 ± 0.598 µM and the IC50 ([2]; pIC50 at pH 7.5, OXA-10, with 100 mM added NaHCO3, 30 min pre-incubation, Table S1) was 263 µM. For the same molecule, the IC50 ([2]; pIC50 at pH 7.5, OXA-10, with 100 mM added NaHCO3, 60 min pre-incubation, Table S1) was 112 µM, the IC50 ([2]; pIC50 at pH 7.5, OXA-10, with 100 mM added NaHCO3, 360 min pre-incubation, Table S1) was 204 µM and the IC50 ([2]; pIC50 at pH 7.5, OXA-10, without added NaHCO3, 0 min pre-incubation, Table S1) was 204 µM. It also gave an IC50 ([2]; pIC50 at pH 7.5, OXA-10, without added NaHCO3, 10 min pre-incubation, Table S1) of 87.1 µM, an IC50 ([2]; pIC50 at pH 7.5, OXA-10, without added NaHCO3, 30 min pre-incubation, Table S1) of 89.1 µM and an IC50 ([2]; pIC50 at pH 7.5, OXA-10, without added NaHCO3, 60 min pre-incubation, Table S1) of 75.9 µM. The IC50 ([2]; pIC50 at pH 7.5, OXA-10, without added NaHCO3, 360 min pre-incubation, Table S1) was 50.1 µM, the Ki [3] was 1580 ± 189 µM and the Ki [4] was 4920 ± 873 µM. For the same molecule, the “−18-Da modification, OXA-10” value [5] was “Small amounts”.
